This note sets out measurements from patent US20260034138A1, “NOVEL PYRIMIDINYL AND TRIAZINYL SULFONAMIDE DERIVATIVES” (Hoffmann-La Roche Inc., priority 2022, published 2026).

The structures appear in SMILES notation.

Data set [1] concerns the target human GPR17 short isoform (Homo sapiens, UniProt Q13304). The experiment in a line: GPR17 cAMP assay (hGPR17 cAMP). The following applies: CHO-K1 cells stably expressing human GPR17 short isoform; antagonist mode vs EC80 of MDL29,951; forskolin 15 μM; TR-FRET cAMP. Format: cell-based. Here is the method:
GPR17 cAMP Assay Protocol:
CHO-K1 cells stably expressing vector containing untagged human GPR17 short isoform (Roche) were cultured at 37° C./5% CO2 in DMEM (Dulbecco's Modified Eagle Medium): F-12 (1:1) supplemented with 10% foetal bovine serum and 400 μg/ml Geneticin.
Changes in intracellular cyclic adenosine monophosphate (cAMP) levels were quantified using the Nano-TRF Detection Assay kit (Roche Diagnostics, Cat. No. 05214386001). This assay allows for direct cAMP quantification in a homogeneous solution. cAMP is detected based on time-resolved fluorescence energy transfer (TR-FRET) and competitive binding of ruthenylated cAMP and endogenous cAMP to an anti-cAMP monoclonal antibody labeled with AlexaFluor-700. The Ruthenium complex serves as the FRET donor and transfers energy to AlexaFluor-700. The FRET signal is inversely proportional to the CAMP concentration.
CHO-GPR17S cells were detached with Accutase and resuspended in assay buffer consisting of Hank's Balanced Salt Solution (HBSS), 10 mM HEPES (4-(2-hydroxyethyl) piperazine-1-ethanesulfonic acid solution) and 0.1% bovine serum albumin (pH 7.4). The cells were seeded in black 384-well plates (Corning) at a density of 10'000 cells/20 μl assay buffer until the addition of compounds.
Test antagonist compounds were serially diluted in dimethyl sulfoxide (DMSO) and spotted in 384-well plates. The compounds were then diluted in HBSS buffer supplemented with an EC80 concentration of MDL29,951 (3-(2-Carboxy-4,6-dichloroindol-3-yl) propionic acid) (GPR17 agonist) plus 3-Isobutyl-1-methylxanthine (IBMX) (0.5 mM final concentration) and added to the cells at room temperature. Forskolin (15 μM final concentration) was added 5 minutes after the test compounds and the cells were incubated at room temperature for 30 minutes. The assay was stopped by adding cAMP detection mix (containing detergents for cell lysis) for 90 minutes at room temperature.
Cellular cAMP was measured using a Paradigm reader (Molecular Devices). The raw data was used to calculate the FRET signal based on the assay's P-factor as per cAMP kit instructions. The data was normalized to the maximal activity of a reference antagonist and dose response curves were fitted to the percent activity of the test compounds using a sigmoidal dose response model (Genedata Screener).
Results in the hGPR17 cAMP assay are provided for compounds of formula I in Table 1
(cAMP levels reflect the balance of adenylyl cyclase and phosphodiesterase activity.)

Data set [2] can be described thus: Microsome Clearance Assay. Format: in vitro ADME. The settings on record: human microsomes 0.5 mg/mL plus NADPH, 37° C., test compound 1 microM final. Here is the method: Microsome Clearance Assay Protocol:
Incubations at a test compound of 1 mM in microsomes (0.5 mg/mL) plus cofactor NADPH are performed in 96 well plates at 37° C. on a TECAN (Tecan Group Ltd, Switzerland) automated liquid handling system. The final concentration of the test compound in the incubation is 1 microM. After a 10 minutes preincubation step of the test compound with the microsomes, the enzymatic reaction is started by the addition of cofactors. At 1, 3, 6, 9, 15, 25, 35 and 45 minutes, aliquots of the incubations are removed and quenched with 1:3 (v/v) acetonitrile containing internal standards. Samples are then cooled and centrifuged before analysis of the supernatant by LC-MS/MS.
Reference compounds were tested against exemplified compounds for their Microsome Clearance to evaluate metabolite stability.

Sequence of human GPR17 short isoform (Q13304 29-367): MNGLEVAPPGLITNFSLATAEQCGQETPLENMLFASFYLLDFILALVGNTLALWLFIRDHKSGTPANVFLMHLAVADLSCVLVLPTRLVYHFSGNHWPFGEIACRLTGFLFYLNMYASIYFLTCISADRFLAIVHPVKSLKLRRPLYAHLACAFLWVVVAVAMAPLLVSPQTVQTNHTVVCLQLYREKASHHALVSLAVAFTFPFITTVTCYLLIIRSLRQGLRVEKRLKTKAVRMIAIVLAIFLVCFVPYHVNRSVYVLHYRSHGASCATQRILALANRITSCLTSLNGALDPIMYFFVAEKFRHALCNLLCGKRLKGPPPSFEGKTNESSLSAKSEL

The compound `COc1nc(OCC(F)F)ncc1NS(=O)(=O)c1c[nH]c2cc(C(F)(F)F)ccc12` [Example 11, N-[2-(2,2-difluoroethoxy)-4-methoxy-pyrimidin-5-yl]-6-(trifluoromethyl)-1H-indole-3-sulfonamide] came in with an IC50 in data set [1] of 347 nM.
Compound `CCc1ncc(NS(=O)(=O)c2c[nH]c3cc(Cl)ccc23)c(OC)n1` [Example 2, 6-chloro-N-(2-ethyl-4-methoxy-pyrimidin-5-yl)-1H-indole-3-sulfonamide] displayed an IC50 in data set [1] of 637 nM. This IC50 is about 1.8-fold higher than that of the compound before.
Same read-out and setting: the result for `COc1nc(NS(=O)(=O)c2c[nH]c3cc(Cl)ccc23)nnc1C` [Example 13, 6-chloro-N-(5-methoxy-6-methyl-1,2,4-triazin-3-yl)-1H-indole-3-sulfonamide] reads 5220 nM.
On the same count and under the same terms, the result for `COc1nc(OCC(F)F)ncc1NS(=O)(=O)c1c[nH]c2cc(Br)ccc12` [Example 9, 6-bromo-N-[2-(2,2-difluoroethoxy)-4-methoxy-pyrimidin-5-yl]-1H-indole-3-sulfonamide] reads 53 nM; that for `COc1nc(OCC(F)F)ncc1NS(=O)(=O)c1c[nH]c2nc(Br)ccc12` [Example 10, 6-bromo-N-[2-(2,2-difluoroethoxy)-4-methoxy-pyrimidin-5-yl]-1H-pyrrolo[2,3-b]pyridine-3-sulfonamide], 167 nM.
For `CCCc1ncc(NS(=O)(=O)c2c[nH]c3cc(Cl)ccc23)c(OC)n1` [Example 1, 6-chloro-N-(4-methoxy-2-propyl-pyrimidin-5-yl)-1H-indole-3-sulfonamide], the IC50 in data set [1] was determined as 772 nM. Compared with the last compound, the IC50 is about 4.6-fold higher.
Consider `COc1nc(OCC(F)F)c(F)cc1NS(=O)(=O)c1c[nH]c2nc(Cl)ccc12` [RE-A, 6-chloro-N-[6-(2,2-difluoroethoxy)-5-fluoro-2-methoxy-3-pyridyl]-1H-pyrrolo[2,3-b]pyridine-3-sulfonamide, reference compound], for which the microsomal CLint at 1 microM in data set [2] came to 41 µL/min/mg.
In data set [1], `COc1nc(OC(F)F)ncc1NS(=O)(=O)c1c[nH]c2cc(Cl)ccc12` [Example 3, 6-chloro-N-[2-(difluoromethoxy)-4-methoxy-pyrimidin-5-yl]-1H-indole-3-sulfonamide] returned an IC50 of 159 nM. That is a sub-micromolar value.
On the same count and under the same terms, the same measure for `O=S(=O)(Nc1cnc(Cl)nc1Cl)c1c[nH]c2cc(Cl)ccc12` [Example 6, 6-chloro-N-(2,4-dichloropyrimidin-5-yl)-1H-indole-3-sulfonamide]: 1190 nM.
On to `O=S(=O)(Nc1cnc(OCC(F)F)nc1OC(F)F)c1c[nH]c2cc(Cl)ccc12` [Example 5, 6-chloro-N-[2-(2,2-difluoroethoxy)-4-(difluoromethoxy)pyrimidin-5-yl]-1H-indole-3-sulfonamide], for which, in data set [1], 174 nM corresponded to half-maximal inhibition (IC50).
On the same count and under the same terms, the result for `COc1nc(OCC(F)F)ncc1NS(=O)(=O)c1c[nH]c2cc(Cl)ccc12` [Example 8, 6-chloro-N-(2-(2,2-difluoroethoxy)-4-methoxypyrimidin-5-yl)-1H-indole-3-sulfonamide] reads 121 nM.
For `COc1nc(NS(=O)(=O)c2c[nH]c3cc(Cl)ccc23)nnc1CC(F)F` [Example 12, 6-chloro-N-[6-(2,2-difluoroethyl)-5-methoxy-1,2,4-triazin-3-yl]-1H-indole-3-sulfonamide], the IC50 in data set [1] was found to be 908 nM. Further, the microsomal CLint at 1 microM in data set [2] came to 10 µL/min/mg.
The compound `COc1nc(OCC(F)F)ncc1NS(=O)(=O)c1c[nH]c2nc(Cl)ccc12` [Example 4, 6-chloro-N-[2-(2,2-difluoroethoxy)-4-methoxy-pyrimidin-5-yl]-1H-pyrrolo[2,3-b]pyridine-3-sulfonamide] registered an IC50 in data set [1] of 460 nM. Moreover, in data set [2], the microsomal CLint at 1 microM stood at 10 µL/min/mg.
In data set [1], `COc1nc(OCCF)ncc1NS(=O)(=O)c1c[nH]c2cc(Cl)ccc12` [Example 7, 6-chloro-N-(2-(2-fluoroethoxy)-4-methoxypyrimidin-5-yl)-1H-indole-3-sulfonamide] showed an IC50 of 727 nM.

What is called IC50 is the concentration at which inhibition is half-maximal. The microsomal CLint is the rate of metabolic loss divided by the concentration.
